Assays:
primary human T cells [1] = assay: EPO mRNA LNP delivery to primary human T cells, Quantikine IVD Human Epo ELISA; type: cell-based
Protocol: Reagents were acquired from Quantikine, Minneapolis, MN. The assay was performed as directed on the Quantikine® IVD® ELISA Human Erythropoietin Immunoassay protocol in the package insert. Briefly; primary human T cells were isolated from fresh whole blood using a negative selection protocol and activated using a triple activator. Seven days post-activation, T cells were dosed with mRNA LNPs encoding EPO at […] mRNA per 500,000 cells and N/P 10. After 48 h of exposure, the T cells were harvested and lysed for cytosolic EPO and media supernatant was sampled for secreted EPO. Quantikine® Human Serum Controls were used.

C57BL/6 mice = assay: In vivo delivery of OVA-encoded mRNA LNP via intramuscular administration, anti-OVA-IgG ELISA of serum; conditions: 5 μg OVA mRNA i.m. on Day 1 and 10, serum 2 weeks post second immunization, versus 50 ug OVA protein, FIG. 10
Protocol: A lipid mixture of LM02b composition in ethanol was mixed with a low pH buffered solution of Ova mRNA at an N/P ratio of 8 using a NanoAssemblr® Ignite™ microfluidic mixer. The LNP were downstream processed using the Amicon™ ultra filtration technique and characterized for size, PDI and encapsulation efficiency. Size and PDI were measured using dynamic light scattering techniques, and nucleic acid encapsulation efficiency was calculated from a modified Quant-iT RiboGreen™ RNA assay. The hydrodynamic diameter of these mRNA-LNPs was ˜76 nm with a polydispersity index of 0.01 to 0.12 and an encapsulation efficiency of ˜95%
All animals were handled according to the Institutional Animal Care and Use Committee ethics protocols. For experiments, 6-8 week old C57BL/6 mice (n=4) were purchased from Envigo. […] Aliquots of serum samples were thawed and analyzed at appropriate dilutions for Ova expression and for IgG measurements using standard ELISA techniques.
Anti-OVA-IgG ELISA of serum samples: Sera from the immunized mice were collected at 2 weeks post second immunization. OVA—specific production of IgG in response to OVA-encoded mRNA in various LNPs were measured by ELISA as described supra. […] After 30 minutes of incubation, a stop solution of 2 N sulphuric acid was added and a plate reader was used to determine absorbance at 450 nm. […]

primary human T cells [2] = assay: CD19 CAR mRNA LNP expression in isolated primary human T cells; type: cell-based; conditions: CT10, N/P 8, transfected T cells in vitro, FIG. 9
Protocol: FIG. 9 are two illustrations of CD19 CAR expression levels in isolated primary human T cells mediated by mRNA CT10 N/P 8 LNPs containing PNI 545, PNI 516, PNI132, PNI 542, PNI 565 incorporating CD19 CAR (chimeric antigen receptor) mRNA. Geometric mean fluorescence intensity of anti-CD19-PE fluorophore (top bar graph) and CD19 CAR positive T cell population (bottom histogram) were measured by flow cytometry 24 hours following LNP addition with 500 ng of encapsulated mRNA per 125,000 T cells 3 days after triple activation;
CD19 CAR expression in isolated primary human T cells mediated by mRNA-LNPs containing IL with CT10 composition at N/P 8 was assayed after in vitro exposure. The CAR vector pcDNA3.1 anti-CD19-h(BB Lambda)-EGFP-2nd-CAR (T7 Mut) 7661 bp was purchased from Creative BioLabs, NY, USA.
T cells were isolated from whole blood using a negative isolation procedure and T cell activation, and expansion was carried out by triple activation in ImmunoCult™ Human T Cell Expansion Media as described supra.

[3] = primary human T cells, 48 hours

**Q.** CC/C=C\CC1C(CC(=O)OCC(COCCCCCCCC/C=C\C/C=C\CCCCC)OCCCCCCCC/C=C\C/C=C\CCCCC)CCC1OC(=O)CCCN(C)C (centres unmarked) [PNI 101] was tested. Which “cytosolic EPO” value (primary human T cells [1]; T cell lysate, 48 h exposure, N/P 10, FIG. 5) did it give?
**A.** no cytosolic EPO

**Q.** And the “secreted EPO” value (primary human T cells [1]; media supernatant, 48 h exposure, N/P 10, FIG. 5)?
**A.** about 1016 mlU/mL

**Q.** And the “EPO expression mediated by LNPs versus MC3” value (primary human T cells [1]; [3])?
**A.** higher than those containing MC3

**Q.** And the “Fold increase in EPO concentration relative to MC3” value (primary human T cells [1]; [3])?
**A.** 1.87

**Q.** And the “EPO concentration (mIU/mL), 48 hours” value (primary human T cells [1]; primary human T cells, 48 hours, EPO mRNA LNP, N/P 10)?
**A.** 1016.0 mIU/mL

**Q.** CC/C=C\CC1C(CC(=O)OCC(COCCCCCCCC/C=C\C/C=C\CCCCC)OCCCCCCCC/C=C\C/C=C\CCCCC)CCC1OC(=O)C1(C)CCN(C)CC1 (centres unmarked) [PNI 123] was tested. Which “OVA-specific IgG response” value (C57BL/6 mice) did it give?
**A.** the same or higher IgG response as that of a 10 fold higher dose of OVA protein

**Q.** Which “OVA-specific IgG response” value (C57BL/6 mice) does the source give for CC/C=C\CC1C(CC(=O)OCC(COCCCCCCCC/C=C\C/C=C\CCCCC)OCCCCCCCC/C=C\C/C=C\CCCCC)CCC1OC(=O)C1CCN(C)CC1 (centres unmarked) [PNI 132] here?
**A.** the same or higher IgG response as that of a 10 fold higher dose of OVA protein

**Q.** Which “CD19 CAR expression” value (primary human T cells [2]) does the source give for CC/C=C\CC1C(CC(=O)OCCC(CCCCCCCC)OC(=O)C(CCCCCC)CCCCCCCC)CCC1OC(=O)C1(C)CCN(C)CC1 (centres unmarked) [PNI 565] here?
**A.** greater than MC3 LNP
